Assays:
[1] = target: T1, rat Oat2 (Rattus norvegicus, UniProt Q5RLM2); experiment: Cellular transport assay, HEK-293 cells expressing rat Oat2; details: for TransportTC/TransportMC ratio (net transport ratio): 10 min; for K m: rat hepatic sinusoidal uptake Oat2 (also renal apical), 5 min incubation, concentrations in Table 1
T1 sequence (Q5RLM2 1-535): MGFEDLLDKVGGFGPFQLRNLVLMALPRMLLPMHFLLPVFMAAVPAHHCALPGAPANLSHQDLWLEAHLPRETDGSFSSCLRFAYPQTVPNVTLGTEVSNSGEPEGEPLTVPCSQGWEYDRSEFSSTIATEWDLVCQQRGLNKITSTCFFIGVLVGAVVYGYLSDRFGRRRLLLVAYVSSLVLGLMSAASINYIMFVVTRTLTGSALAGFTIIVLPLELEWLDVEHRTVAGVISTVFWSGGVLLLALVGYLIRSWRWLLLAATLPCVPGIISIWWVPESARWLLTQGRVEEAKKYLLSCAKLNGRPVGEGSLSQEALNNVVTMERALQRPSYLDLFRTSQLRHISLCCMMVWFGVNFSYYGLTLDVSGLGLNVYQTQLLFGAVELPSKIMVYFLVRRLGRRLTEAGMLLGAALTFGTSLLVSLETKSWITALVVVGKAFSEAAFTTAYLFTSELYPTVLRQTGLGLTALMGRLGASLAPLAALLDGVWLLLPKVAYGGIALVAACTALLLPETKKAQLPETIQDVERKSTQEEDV

[2] = target: T2, human OATP1B1 (Homo sapiens, UniProt Q9Y6L6); experiment: Cellular transport assay, HEK-293 cells expressing human OATP1B1; details: for TransportTC/TransportMC ratio (net transport ratio): 10 min
T2 sequence (Q9Y6L6 1-691): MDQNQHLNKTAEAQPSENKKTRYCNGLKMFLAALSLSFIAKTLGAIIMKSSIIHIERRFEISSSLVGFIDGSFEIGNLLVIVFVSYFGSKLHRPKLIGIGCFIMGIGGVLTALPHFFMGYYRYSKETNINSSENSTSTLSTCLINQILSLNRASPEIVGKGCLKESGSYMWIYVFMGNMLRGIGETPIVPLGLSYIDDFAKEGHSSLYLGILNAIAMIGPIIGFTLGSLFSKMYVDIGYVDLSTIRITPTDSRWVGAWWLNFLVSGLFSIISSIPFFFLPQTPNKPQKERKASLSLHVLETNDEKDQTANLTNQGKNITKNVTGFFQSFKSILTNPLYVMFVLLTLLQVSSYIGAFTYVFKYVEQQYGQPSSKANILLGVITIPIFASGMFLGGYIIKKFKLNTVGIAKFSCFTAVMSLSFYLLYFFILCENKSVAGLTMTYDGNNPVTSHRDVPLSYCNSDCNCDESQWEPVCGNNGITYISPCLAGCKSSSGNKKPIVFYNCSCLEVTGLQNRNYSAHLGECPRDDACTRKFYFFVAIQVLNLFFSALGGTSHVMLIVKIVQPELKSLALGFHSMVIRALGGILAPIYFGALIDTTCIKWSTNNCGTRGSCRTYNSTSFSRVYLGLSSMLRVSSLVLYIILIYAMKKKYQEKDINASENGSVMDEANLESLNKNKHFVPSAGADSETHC
Method in brief: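 5-min uptake, linear range, LC/MS quantitation. Net ratio = transfected/mock transport rate; Km, Vmax by nonlinear fit of initial rates.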

[3] = target: T3, rat Oat1 (Rattus norvegicus, UniProt O35956); experiment: Cellular transport assay, HEK-293 cells expressing rat Oat1; details: for TransportTC/TransportMC ratio (net transport ratio): 10 min; for K m: rat renal basolateral uptake Oat1, 5 min incubation, concentrations in Table 1
T3 sequence (O35956 1-551): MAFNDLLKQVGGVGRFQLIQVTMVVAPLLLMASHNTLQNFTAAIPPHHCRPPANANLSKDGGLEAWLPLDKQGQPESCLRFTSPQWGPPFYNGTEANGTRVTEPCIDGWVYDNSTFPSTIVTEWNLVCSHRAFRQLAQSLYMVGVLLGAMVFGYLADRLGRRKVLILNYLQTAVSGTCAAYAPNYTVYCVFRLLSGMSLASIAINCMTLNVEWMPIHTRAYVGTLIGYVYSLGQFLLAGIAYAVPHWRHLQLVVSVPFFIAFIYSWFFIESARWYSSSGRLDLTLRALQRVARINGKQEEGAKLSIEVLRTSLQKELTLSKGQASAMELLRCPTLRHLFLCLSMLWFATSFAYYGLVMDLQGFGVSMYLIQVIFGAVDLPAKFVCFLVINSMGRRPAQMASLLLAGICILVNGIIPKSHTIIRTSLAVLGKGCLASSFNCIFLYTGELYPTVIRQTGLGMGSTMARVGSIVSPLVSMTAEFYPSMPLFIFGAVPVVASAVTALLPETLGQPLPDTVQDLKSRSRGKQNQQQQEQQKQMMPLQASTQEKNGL

[4] = Danshen phenolic acid at 100 μM final concentration, rat Oat2-transfected vs mock cells
[5] = Danshen phenolic acid at 100 μM final concentration, human OATP1B1-transfected vs mock cells
[6] = human hepatic sinusoidal uptake OATP1B1, 5 min incubation, concentrations in Table 1
[7] = Danshen phenolic acid at 100 μM final concentration, rat Oat1-transfected vs mock cells

Molecule: O=C(/C=C/c1ccc(O)c2c1[C@H](C(=O)O)[C@@H](c1ccc(O)c(O)c1)O2)O[C@H](Cc1ccc(O)c(O)c1)C(=O)O [Lithospermic acid, lithospermic acid]
- TransportTC/TransportMC ratio (net transport ratio) [1, 4]: 1.36 ± 0.33
- substrate of human OATP1B1 [2]: substrates
- TransportTC/TransportMC ratio (net transport ratio) [2, 5]: 3.99 ± 0.24
- microsomal CLint ([2]; human): 0.06 µL/min/mg
- K m [2, 6]: 428 ± 67 µM
- TransportTC/TransportMC ratio (net transport ratio) [3, 7]: 1.36 ± 0.35

Molecule: O=C(O)c1ccc(O)c(O)c1 [Protocatechuic acid, protocatechuic acid]
- substrate of rat Oat2 [1]: substrates
- TransportTC/TransportMC ratio (net transport ratio) [1, 4]: 163 ± 30
- microsomal CLint ([1]; rat): 10.9 µL/min/mg
- K m [1]: 109 ± 6 µM
- TransportTC/TransportMC ratio (net transport ratio) [2, 5]: 0.83 ± 0.14
- TransportTC/TransportMC ratio (net transport ratio) [3, 7]: 104 ± 20
- microsomal CLint ([3]; rat): 4.07 µL/min/mg
- K m [3]: 110 ± 19 µM

Molecule: O=C(/C=C/c1ccc(O)c(O)c1)O[C@H](Cc1ccc(O)c(O)c1)C(=O)O [Rosmarinic acid, rosmarinic acid]
- substrate of rat Oat2 [1]: substrates
- K m [1]: 119 ± 15 µM
- TransportTC/TransportMC ratio (net transport ratio) ([1]; rat, 100 μM): 334 ± 18
- microsomal CLint ([1]; rat, other cell line): 5.2 µL/min/mg
- substrate of human OATP1B1 [2]: substrates
- TransportTC/TransportMC ratio (net transport ratio) ([2]; human, 100 μM): 4.00 ± 0.43
- microsomal CLint ([2]; human, other cell line): 0.07 µL/min/mg
- substrate of rat Oat1 [3]: substrates
- K m [3]: 59.2 ± 4.7 µM
- TransportTC/TransportMC ratio (net transport ratio) ([3]; rat, 100 μM): 150 ± 46
- microsomal CLint ([3]; rat, other cell line): 3.47 µL/min/mg

Molecule: O=C(/C=C/c1ccc(O)c(O)c1/C=C/c1ccc(O)c(O)c1)O[C@H](Cc1ccc(O)c(O)c1)C(=O)O [Salvianolic acid A, salvianolic acid A]
- substrate of rat Oat2 [1]: not substrates
- TransportTC/TransportMC ratio (net transport ratio) ([1]; rat, 100 μM): 1.41 ± 0.26
- substrate of human OATP1B1 [2]: not a substrate
- TransportTC/TransportMC ratio (net transport ratio) ([2]; human, 100 μM): 1.21 ± 0.33
- substrate of rat Oat1 [3]: not substrates
- TransportTC/TransportMC ratio (net transport ratio) ([3]; rat, 100 μM): 1.13 ± 0.64

Molecule: O=C(O)Cc1c(/C=C/C(=O)O[C@H](Cc2ccc(O)c(O)c2)C(=O)O)ccc(O)c1O [Salvianolic acid D, salvianolic acid D]
- substrate of rat Oat2 [1]: substrates
- TransportTC/TransportMC ratio (net transport ratio) [1, 4]: 50.5 ± 10.7
- microsomal CLint ([1]; rat): 2.73 µL/min/mg
- K m [1]: 60.0 ± 7.2 µM
- substrate of human OATP1B1 [2]: substrates
- TransportTC/TransportMC ratio (net transport ratio) [2, 5]: 5.38 ± 0.83
- microsomal CLint ([2]; human): 0.22 µL/min/mg
- K m [2, 6]: 403 ± 85 µM
- TransportTC/TransportMC ratio (net transport ratio) [3, 7]: 11.5 ± 2.9
- microsomal CLint ([3]; rat): 4.72 µL/min/mg
- K m [3]: 24.4 ± 3.3 µM

Molecule: O=C(O)C(O)Cc1ccc(O)c(O)c1 (stereo not shown) [Tanshinol, tanshinol]
- K m [1]: 978 ± 123 µM
- K m [3]: 154 ± 13 µM
- microsomal CLint ([3]; rat, other cell line): 4.13 µL/min/mg

Molecule: salvianolic acid B
- TransportTC/TransportMC ratio (net transport ratio) [1, 4]: 0.92 ± 0.22
- substrate of human OATP1B1 [2]: substrates
- TransportTC/TransportMC ratio (net transport ratio) [2, 5]: 5.16 ± 1.30
- CLint ([2]; human hepatic sinusoidal uptake OATP1B1): 0.46 μL/min/mg protein
- K m [2, 6]: 58.9 ± 6.2 µM
- V max [2, 6]: 28.1 ± 1.2 pmol/min/mg protein
- TransportTC/TransportMC ratio (net transport ratio) [3, 7]: 1.56 ± 0.67
